Assay [1] deals with Pseudomonas aeruginosa expressing AmpC (CL5701). Put plainly: Antibiotic activity: growth inhibitory concentration (OD600), Pseudomonas aeruginosa CL5701. In kind it is cell-based. The conditions noted are these: lowest concentration inhibiting 95% of bacterial growth; in the presence of β lactamase inhibitor Relebactam 4 μg/mL; 35±2° C. for 22 hours; tested range 100 μM to 0.098 μM. In short, it runs like this: (§1)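 Clinical strains at ~2×10^5 CFU/mL in cation-adjusted Mueller-Hinton II broth, with relebactam at 4 μg/mL final; compounds 100 μM to 0.098 μM final. After 22 hours at 35±2° C, OD600 read; MITC95 is lowest concentration giving 95% growth inhibition.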

Assay [2] has as its system Klebsiella pneumoniae expressing KPC-1 (CL6569). The experiment in a line: Antibiotic activity: growth inhibitory concentration (OD600), Klebsiella pneumoniae CL6569. In kind it is cell-based. The conditions noted are these: lowest concentration inhibiting 95% of bacterial growth; in the presence of β lactamase inhibitor Relebactam 4 μg/mL; 35±2° C. for 22 hours; tested range 100 μM to 0.098 μM. In short, it runs like this: as §1

Structures can show the parent of a compound that is named as a salt.

Take `C[n+]1cc(-c2ccc(OC[C@H](O/N=C(\C(=O)N[C@@H]3C(=O)N(OS(=O)(=O)[O-])C3(C)C)c3csc(N)n3)C(=O)O)cc2)ccc1NC(CN)CN` [Example 82, (S)-3-((Z)-2-(2-aminothiazol-4-yl)-2-(((S)-1-carboxy-2-(4-(6-((1,3-diaminopropan-2-yl)amino)-1-methylpyridin-1-ium-3-yl)phenoxy)ethoxy)imino)acetamido)-2,2-dimethyl-4-oxoazetidin-1-yl sulfate]: the “PA_CL5701 MITC95” value in assay [1] stood at 3.125 µM. Further, in assay [2], the “KP_CL6569 MITC95” value stood at 0.1953 µM.

For `CC1(C)[C@H](NC(=O)/C(=N\O[C@@H](COc2ccc(C(N)CNC3=NCCN3)cc2)C(=O)O)c2csc(N)n2)C(=O)N1OS(=O)(=O)O` (stereo partly drawn) [Example 61, (2S)-3-(4-(1-amino-2-((4,5-dihydro-1H-imidazol-2-yl)amino)ethyl)phenoxy)-2-((((Z)-1-(2-aminothiazol-4-yl)-2-(((S)-2,2-dimethyl-4-oxo-1-(sulfooxy)azetidin-3-yl)amino)-2-oxoethylidene)amino)oxy)propanoic acid], the “PA_CL5701 MITC95” value in assay [1] is 12.5 µM. Besides, the “KP_CL6569 MITC95” value in assay [2] was 1.563 µM.

As to `C[n+]1cc(-c2ccc(OCC(C)(O/N=C(\C(=O)N[C@@H]3C(=O)N(OS(=O)(=O)O)C3(C)C)c3nc(N)sc3Cl)C(=O)O)cc2)cn1CCCN` (stereo in doubt) [Example 51A, (S)-3-((Z)-2-(2-Amino-5-chlorothiazol-4-yl)-2-((((R)-1-(4-(1-(3-aminopropyl)-2-methyl-1H-pyrazol-2-ium-4-yl)phenoxy)-2-carboxypropan-2-yl)oxy)imino)acetamido)-2,2-dimethyl-4-oxoazetidin-1-yl sulfate], in assay [1], the “PA_CL5701 MITC95” value was determined as 3.125 µM. Besides, the “KP_CL6569 MITC95” value in assay [2] came out at 0.7813 µM.

For `C[n+]1cc(-c2ccc(OC[C@H](O/N=C(\C(=O)N[C@@H]3C(=O)N(OS(=O)(=O)[O-])C3(C)C)c3csc(N)n3)C(=O)O)cc2F)ccc1NCCN` [Example 68, (S)-3-((Z)-2-(((S)-2-(4-(6-((2-aminoethyl)amino)-1-methylpyridin-1-ium-3-yl)-3-fluorophenoxy)-1-carboxyethoxy)imino)-2-(2-aminothiazol-4-yl)acetamido)-2,2-dimethyl-4-oxoazetidin-1-yl sulfate], the “PA_CL5701 MITC95” value in assay [1] is 3.125 µM. Further, in assay [2], the “KP_CL6569 MITC95” value came out at 0.1953 µM.

As for `C[n+]1cc(-c2ccc(OC[C@H](O/N=C(\C(=O)N[C@@H]3C(=O)N(OS(=O)(=O)[O-])C3(C)C)c3csc(N)n3)C(=O)O)cc2)cn1CCN` [Example 17, (S)-3-((Z)-2-(((S)-2-(4-(1-(2-aminoethyl)-2-methyl-1H-pyrazol-2-ium-4-yl)phenoxy)-1-carboxyethoxy)imino)-2-(2-aminothiazol-4-yl)acetamido)-2,2-dimethyl-4-oxoazetidin-1-yl sulfate], in assay [1], the “PA_CL5701 MITC95” value amounted to 6.25 µM. Besides, in assay [2], the “KP_CL6569 MITC95” value was 0.3906 µM.

Take `C[n+]1c(N)c(-c2ccc(OC[C@H](O/N=C(\C(=O)N[C@@H]3C(=O)N(OS(=O)(=O)[O-])C3(C)C)c3nc(N)sc3Cl)C(=O)O)cc2F)cn1CCCN` [Example 48, (S)-3-((Z)-2-(((S)-2-(4-(3-Amino-1-(3-aminopropyl)-2-methyl-1H-pyrazol-2-ium-4-yl)-3-fluorophenoxy)-1-carboxyethoxy)imino)-2-(2-amino-5-chlorothiazol-4-yl)acetamido)-2,2-dimethyl-4-oxoazetidin-1-yl sulfate]: in assay [1], the “PA_CL5701 MITC95” value turned out to be 6.25 µM. Besides, in assay [2], the “KP_CL6569 MITC95” value is 0.7813 µM.

For `Cn1c(-c2ccc(OC[C@H](O/N=C(\C(=O)N[C@@H]3C(=O)N(OS(=O)(=O)O)C3(C)C)c3csc(N)n3)C(=O)O)cc2)cn(CCCN)c1=N.O=C(O)C(F)(F)F` [Example 32, 3-(4-(4-((S)-2-((((Z)-1-(2-aminothiazol-4-yl)-2-(((S)-2,2-dimethyl-4-oxo-1-(sulfooxy)-azetidin-3-yl)amino)-2-oxoethylidene)amino)oxy)-2-carboxyethoxy)phenyl)-2-imino-3-methyl-2,3-dihydro-1H-imidazol-1-yl)propan-1-aminium 2,2,2-trifluoroacetate], in assay [1], the “PA_CL5701 MITC95” value worked out at 3.125 µM. Moreover, the “KP_CL6569 MITC95” value in assay [2] turned out to be 0.1953 µM.

`C[n+]1c(N)c(-c2ccc(OC[C@H](O/N=C(\C(=O)N[C@@H]3C(=O)N(OS(=O)(=O)[O-])C3(C)C)c3csc(N)n3)C(=O)O)cc2)cn1CCCN` [Example 28, (S)-3-((Z)-2-(((S)-2-(4-(3-Amino-1-(3-aminopropyl)-2-methyl-1H-pyrazol-2-ium-4-yl)phenoxy)-1-carboxyethoxy)imino)-2-(2-aminothiazol-4-yl)acetamido)-2,2-dimethyl-4-oxoazetidin-1-yl sulfate]: the “PA_CL5701 MITC95” value in assay [1] came out at 3.13 µM. In assay [2], the “KP_CL6569 MITC95” value was 0.2 µM.

For the molecule `Cn1c(-c2ccc(OC[C@H](O/N=C(\C(=O)N[C@@H]3C(=O)N(OS(=O)(=O)O)C3(C)C)c3csc(N)n3)C(=O)O)cc2F)cn(CCCN)c1=N` [Example 96, (S)-3-(4-(1-(3-aminopropyl)-2-imino-3-methyl-2,3-dihydro-1H-imidazol-4-yl)-3-fluorophenoxy)-2-((((Z)-1-(2-aminothiazol-4-yl)-2-(((S)-2,2-dimethyl-4-oxo-1-(sulfooxy)azetidin-3-yl)amino)-2-oxoethylidene)amino)oxy)propanoic acid], the “PA_CL5701 MITC95” value in assay [1] was found to be 6.25 µM. Also, the “KP_CL6569 MITC95” value in assay [2] was 0.3906 µM.

Regarding `C[n+]1cc(-c2ccc(OC[C@H](O/N=C(/C(=O)N[C@@H]3C(=O)N(OS(=O)(=O)[O-])C3(C)C)c3csc(N)n3)C(=O)O)cc2)cn1CCCNCCN` [Example 102, (S)-3-((E)-2-(((S)-2-(4-(1-(3-((2-aminoethyl)amino)propyl)-2-methyl-1H-pyrazol-2-ium-4-yl)phenoxy)-1-carboxyethoxy)imino)-2-(2-aminothiazol-4-yl)acetamido)-2,2-dimethyl-4-oxoazetidin-1-yl sulfate], the “PA_CL5701 MITC95” value in assay [1] came to 3.125 µM. For the same molecule, in assay [2], the “KP_CL6569 MITC95” value came out at 0.125 µM.

As to `C[C@H]1[C@H](NC(=O)/C(=N\O[C@@H](COc2ccc(-c3cn(CCCN)[n+](C)c3)cc2)C(=O)O)c2csc(N)n2)C(=O)N1S(=O)(=O)[O-]` [Example 7, (2S,3S)-3-((Z)-2-(((S)-2-(4-(1-(3-aminopropyl)-2-methyl-1H-pyrazol-2-ium-4-yl)phenoxy)-1-carboxyethoxy)imino)-2-(2-aminothiazol-4-yl)acetamido)-2-methyl-4-oxoazetidine-1-sulfonate], in assay [1], the “PA_CL5701 MITC95” value was 12.5 µM. For the same molecule, in assay [2], the “KP_CL6569 MITC95” value came out at 1.563 µM.

Take `CC1(C)[C@H](NC(=O)/C(=N\O[C@@H](COc2ccc(-n3cc[n+](CCCN)c3)nc2)C(=O)O)c2csc(N)n2)C(=O)N1OS(=O)(=O)[O-]` [Example 36, (S)-3-((Z)-2-(((S)-2-((6-(3-(3-aminopropyl)-1H-imidazol-3-ium-1-yl)pyridin-3-yl)oxy)-1-carboxyethoxy)imino)-2-(2-aminothiazol-4-yl)acetamido)-2,2-dimethyl-4-oxoazetidin-1-yl sulfate compound with 2,2,2-trifluoroacetic acid (1:1)]: the “PA_CL5701 MITC95” value in assay [1] was found to be 6.25 µM. For the same molecule, the “KP_CL6569 MITC95” value in assay [2] worked out at 0.7813 µM.

For the molecule `C[n+]1cc(-c2ccc(OC[C@H](O/N=C(\C(=O)N[C@@H]3C(=O)N(OS(=O)(=O)[O-])C3(C)C)c3csc(N)n3)C(=O)O)cc2)ccc1N1CCNCC1` [Example 71, (S)-3-((Z)-2-(2-aminothiazol-4-yl)-2-(((S)-1-carboxy-2-(4-(1-methyl-6-(piperazin-1-yl)pyridin-1-ium-3-yl)phenoxy)ethoxy)imino)acetamido)-2,2-dimethyl-4-oxoazetidin-1-yl sulfate], the “PA_CL5701 MITC95” value in assay [1] was 6.25 µM. The “KP_CL6569 MITC95” value in assay [2] was 0.1953 µM.

Consider `C[n+]1cc(-c2ccc(OC[C@H](O/N=C(\C(=O)N[C@@H]3C(=O)N(OS(=O)(=O)[O-])C3(C)C)c3csc(N)n3)C(=O)O)cc2)ccc1NCC1(O)CNC1` [Example 73, (S)-3-((Z)-2-(2-aminothiazol-4-yl)-2-(((S)-1-carboxy-2-(4-(6-(((3-hydroxyazetidin-3-yl)methyl)amino)-1-methylpyridin-1-ium-3-yl)phenoxy)ethoxy)imino)acetamido)-2,2-dimethyl-4-oxoazetidin-1-yl sulfate], for which the “PA_CL5701 MITC95” value in assay [1] stood at 3.125 µM. Moreover, in assay [2], the “KP_CL6569 MITC95” value was 0.1953 µM.

For `C[n+]1c(N)c(-c2ccc(OC[C@H](O/N=C(\C(=O)N[C@@H]3C(=O)N(OS(=O)(=O)[O-])C3(C)C)c3nc(N)sc3Cl)C(=O)O)cc2)cn1CCCN` [Example 49, (S)-3-((Z)-2-(((S)-2-(4-(3-Amino-1-(3-aminopropyl)-2-methyl-1H-pyrazol-2-ium-4-yl)phenoxy)-1-carboxyethoxy)imino)-2-(2-amino-5-chlorothiazol-4-yl)acetamido)-2,2-dimethyl-4-oxoazetidin-1-yl sulfate], the “PA_CL5701 MITC95” value in assay [1] was 6.25 µM. Besides, the “KP_CL6569 MITC95” value in assay [2] turned out to be 0.7813 µM.

Regarding `CC1(C)[C@H](NC(=O)/C(=N\O[C@@H](COc2ccc(-n3cc(CCCN)[n+](CC4(F)CNC4)c3)nc2)C(=O)O)c2csc(N)n2)C(=O)N1OS(=O)(=O)[O-]` [Example 124, (S)-3-((Z)-2-(((S)-2-((6-(4-(3-aminopropyl)-3-((3-fluoroazetidin-3-yl)methyl)-1H-imidazol-3-ium-1-yl)pyridin-3-yl)oxy)-1-carboxyethoxy)imino)-2-(2-aminothiazol-4-yl)acetamido)-2,2-dimethyl-4-oxoazetidin-1-yl sulfate], the “PA_CL5701 MITC95” value in assay [1] amounted to 12.5 µM. In assay [2], the “KP_CL6569 MITC95” value was 0.7813 µM.

Take `C[n+]1cc(-c2ccc(OC[C@H](O/N=C(\C(=O)N[C@@H]3C(=O)N(OS(=O)(=O)[O-])C3(C)C)c3csc(N)n3)C(=O)O)cc2F)cn1C[C@@H](O)CN.O=CO` (single isomer, unassigned) [Example 43]: in assay [1], the “PA_CL5701 MITC95” value came out at 3.125 µM. For the same molecule, the “KP_CL6569 MITC95” value in assay [2] came out at 0.1953 µM.

These data come from patent publication US11230543B2, “Biaryl monobactam compounds and methods of use thereof for the treatment of bacterial infections” (priority 2015, dated 2022).
